Assay [1] concerns the target Small conductance calcium-activated potassium channel protein 3 (Homo sapiens, UniProt Q9UGI6). The assay can be described thus: Inhibition of recombinant human SK3 expressed in HEK293T cells at 10 nM and holding potential at 0 mV and ramp voltage from -100 to 100 mV by whole cell patch clamp method relative to control. The settings on record: HEK-293T. In kind it is cell-based. In general terms: The patch-clamp technique gives a direct electrical read-out from membranes.

Assay [2] has as its target Small conductance calcium-activated potassium channel protein 2 (Rattus norvegicus) (UniProt P70604). The assay can be described thus: Inhibition of recombinant rat SK2 expressed in HEK293 cells at 10 nM and holding potential at 0 mV and ramp voltage from -100 to 100 mV by whole cell patch clamp method relative to control. In kind it is cell-based.

Active and inactive are the calls of the source. No cut-off for these calls is given here. Positions of bridges follow the written chain, without caps; N, C: chain ends. Residues, ends and D or L forms follow the SMILES beside them.

Our source for the inhibition values is ChEMBL document CHEMBL4725389, “Novel Blocker of Onco SK3 Channels Derived from Scorpion Toxin Tamapin and Active against Migration of Cancer Cells” (ACS Med Chem Lett, 2020).

Small conductance calcium-activated potassium channel protein 3, sequence (Q9UGI6 whole entry): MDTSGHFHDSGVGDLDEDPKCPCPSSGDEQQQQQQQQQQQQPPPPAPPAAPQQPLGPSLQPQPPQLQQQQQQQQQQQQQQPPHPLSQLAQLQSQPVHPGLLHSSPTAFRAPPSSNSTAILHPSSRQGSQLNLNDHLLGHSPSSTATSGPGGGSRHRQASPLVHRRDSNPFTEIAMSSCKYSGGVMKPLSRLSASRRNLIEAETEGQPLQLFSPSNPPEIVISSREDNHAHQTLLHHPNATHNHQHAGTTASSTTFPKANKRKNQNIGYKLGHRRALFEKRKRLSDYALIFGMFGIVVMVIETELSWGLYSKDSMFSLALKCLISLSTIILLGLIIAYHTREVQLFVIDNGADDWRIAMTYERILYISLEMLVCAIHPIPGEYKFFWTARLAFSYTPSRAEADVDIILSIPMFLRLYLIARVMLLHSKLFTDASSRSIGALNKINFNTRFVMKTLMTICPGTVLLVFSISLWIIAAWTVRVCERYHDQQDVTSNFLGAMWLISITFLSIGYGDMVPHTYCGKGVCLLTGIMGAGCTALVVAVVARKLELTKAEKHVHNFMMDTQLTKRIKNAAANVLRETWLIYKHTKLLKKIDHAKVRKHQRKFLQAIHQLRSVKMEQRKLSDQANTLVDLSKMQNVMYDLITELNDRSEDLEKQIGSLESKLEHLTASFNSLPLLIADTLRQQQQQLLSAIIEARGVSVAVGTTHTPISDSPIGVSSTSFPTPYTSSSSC
Small conductance calcium-activated potassium channel protein 2 (Rattus norvegicus), sequence (P70604 whole entry): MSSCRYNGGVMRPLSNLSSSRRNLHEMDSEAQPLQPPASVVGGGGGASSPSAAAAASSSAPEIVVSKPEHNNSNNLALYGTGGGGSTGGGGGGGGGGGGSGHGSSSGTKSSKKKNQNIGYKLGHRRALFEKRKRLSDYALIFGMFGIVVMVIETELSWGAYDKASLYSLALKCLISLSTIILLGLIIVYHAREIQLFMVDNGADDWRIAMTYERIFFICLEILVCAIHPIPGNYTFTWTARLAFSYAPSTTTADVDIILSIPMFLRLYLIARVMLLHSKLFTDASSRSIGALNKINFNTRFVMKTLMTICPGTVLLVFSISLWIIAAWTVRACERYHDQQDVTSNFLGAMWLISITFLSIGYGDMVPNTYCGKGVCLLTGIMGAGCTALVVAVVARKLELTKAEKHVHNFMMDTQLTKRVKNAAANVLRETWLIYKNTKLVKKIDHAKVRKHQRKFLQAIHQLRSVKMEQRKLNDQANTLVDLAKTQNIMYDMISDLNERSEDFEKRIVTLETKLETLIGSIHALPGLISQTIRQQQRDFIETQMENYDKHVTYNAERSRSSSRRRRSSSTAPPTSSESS

With `CC[C@H](C)[C@@H]1NC(=O)[C@@H]2CSSC[C@H](NC(=O)[C@H](Cc3ccccc3)NC(=O)[C@H](C)N)C(=O)N[C@@H](CC(N)=O)C(=O)N[C@@H](CC(C)C)C(=O)N[C@@H](CCCNC(=N)N)C(=O)N[C@@H](CCCNC(=N)N)C(=O)N[C@H]3CSSC[C@H](NC(=O)[C@H](CCC(=O)O)NC(=O)[C@H](CCC(=O)O)NC(=O)CNC1=O)C(=O)N[C@@H](CCCCN)C(=O)N[C@H](C(=O)N[C@H](C(=O)N1CCC[C@H]1C(=O)N[C@@H](C)C(=O)O)C(C)C)CSSC[C@H](NC(=O)[C@H](CO)NC(=O)[C@H](CC(C)C)NC(=O)[C@H](CCC(=O)O)NC3=O)C(=O)N[C@@H](CCCNC(=N)N)C(=O)N[C@@H](CO)C(=O)N[C@@H](CC(C)C)C(=O)NCC(=O)N[C@@H](CC(C)C)C(=O)N[C@@H](CC(C)C)C(=O)NCC(=O)N[C@@H](CCCCN)C(=O)N2` (H-AFCNLRRCELSCRSLGLLGKCIGEECKCVPA-OH; disulfide 3-21, 8-26, 12-28), the inhibition was less than 39% in assay [1] and 40% in assay [2].

In the case of `CC[C@H](C)[C@@H]1NC(=O)[C@@H]2CSSC[C@H](NC(=O)[C@H](Cc3ccccc3)NC(=O)[C@H](C)N)C(=O)N[C@@H](CC(N)=O)C(=O)N[C@@H](CC(C)C)C(=O)N[C@@H](CCCNC(=N)N)C(=O)N[C@@H](CCCNC(=N)N)C(=O)N[C@H]3CSSC[C@H](NC(=O)[C@H](CCC(=O)O)NC(=O)[C@H](CCC(=O)O)NC(=O)CNC1=O)C(=O)N[C@@H](CCCCN)C(=O)N[C@H](C(=O)N[C@H](C(=O)N1CCC[C@H]1C(=O)N[C@@H](Cc1ccc(O)cc1)C(=O)O)C(C)C)CSSC[C@H](NC(=O)[C@H](CO)NC(=O)[C@H](CC(C)C)NC(=O)[C@H](CCC(=O)O)NC3=O)C(=O)N[C@@H](CCCNC(=N)N)C(=O)N[C@@H](CO)C(=O)N[C@@H](CC(C)C)C(=O)NCC(=O)N[C@@H](CC(C)C)C(=O)N[C@@H](CC(C)C)C(=O)NCC(=O)N[C@@H](C)C(=O)N2` (H-AFCNLRRCELSCRSLGLLGACIGEECKCVPY-OH; disulfide 3-21, 8-26, 12-28), in assay [1], the inhibition result was “inactive”. The inhibition in assay [2] was greater than 85%.

Turning to `CC[C@H](C)[C@@H]1NC(=O)[C@@H]2CSSC[C@H](NC(=O)[C@H](Cc3ccccc3)NC(=O)[C@H](C)N)C(=O)N[C@@H](CC(N)=O)C(=O)N[C@@H](CC(C)C)C(=O)N[C@@H](CCCNC(=N)N)C(=O)N[C@@H](CCCNC(=N)N)C(=O)N[C@H]3CSSC[C@H](NC(=O)[C@H](CCC(=O)O)NC(=O)[C@H](CCC(=O)O)NC(=O)CNC1=O)C(=O)N[C@@H](CCCCN)C(=O)N[C@H](C(=O)N[C@H](C(=O)N1CCC[C@H]1C(=O)N[C@@H](Cc1ccc(O)cc1)C(=O)N[C@@H](CC(N)=O)C(=O)O)C(C)C)CSSC[C@H](NC(=O)[C@H](CO)NC(=O)[C@H](CC(C)C)NC(=O)[C@H](CCC(=O)O)NC3=O)C(=O)N[C@@H](CCCNC(=N)N)C(=O)N[C@@H](CO)C(=O)N[C@@H](CC(C)C)C(=O)NCC(=O)N[C@@H](CC(C)C)C(=O)N[C@@H](CC(C)C)C(=O)NCC(=O)N[C@@H](CCCCN)C(=O)N2` (H-AFCNLRRCELSCRSLGLLGKCIGEECKCVPYN-OH; disulfide 3-21, 8-26, 12-28), the values for the inhibition in assay [1] and in assay [2] were less than 39% and 40%, respectively.

As to `CC[C@H](C)[C@@H]1NC(=O)[C@@H]2CSSC[C@H](NC(=O)[C@H](Cc3ccccc3)NC(=O)[C@H](C)N)C(=O)N[C@@H](CC(N)=O)C(=O)N[C@@H](CC(C)C)C(=O)N[C@@H](CCCNC(=N)N)C(=O)N[C@@H](CCCNC(=N)N)C(=O)N[C@H]3CSSC[C@H](NC(=O)[C@H](CCC(=O)O)NC(=O)[C@H](CCC(=O)O)NC(=O)CNC1=O)C(=O)N[C@@H](CCC(=O)O)C(=O)N[C@H](C(=O)N[C@H](C(=O)N1CCC[C@H]1C(=O)N[C@@H](Cc1ccc(O)cc1)C(=O)O)C(C)C)CSSC[C@H](NC(=O)[C@H](CO)NC(=O)[C@H](CC(C)C)NC(=O)[C@H](CCC(=O)O)NC3=O)C(=O)N[C@@H](CCCNC(=N)N)C(=O)N[C@@H](CO)C(=O)N[C@@H](CC(C)C)C(=O)NCC(=O)N[C@@H](CC(C)C)C(=O)N[C@@H](CC(C)C)C(=O)NCC(=O)N[C@@H](CCCCN)C(=O)N2` (H-AFCNLRRCELSCRSLGLLGKCIGEECECVPY-OH; disulfide 3-21, 8-26, 12-28), the inhibition in assay [1] is 40%; in assay [2] it was less than 39%.

On to `CC[C@H](C)[C@@H]1NC(=O)[C@@H]2CSSC[C@H](NC(=O)[C@H](Cc3ccccc3)NC(=O)[C@H](C)N)C(=O)N[C@@H](CC(N)=O)C(=O)N[C@@H](CC(C)C)C(=O)N[C@@H](CCCNC(=N)N)C(=O)N[C@@H](CCCNC(=N)N)C(=O)N[C@H]3CSSC[C@H](NC(=O)[C@H](C)NC(=O)[C@H](CCC(=O)O)NC(=O)CNC1=O)C(=O)N[C@@H](CCCCN)C(=O)N[C@H](C(=O)N[C@H](C(=O)N1CCC[C@H]1C(=O)N[C@@H](Cc1ccc(O)cc1)C(=O)O)C(C)C)CSSC[C@H](NC(=O)[C@H](CO)NC(=O)[C@H](CC(C)C)NC(=O)[C@H](CCC(=O)O)NC3=O)C(=O)N[C@@H](CCCNC(=N)N)C(=O)N[C@@H](CO)C(=O)N[C@@H](CC(C)C)C(=O)NCC(=O)N[C@@H](CC(C)C)C(=O)N[C@@H](CC(C)C)C(=O)NCC(=O)N[C@@H](CCCCN)C(=O)N2` (H-AFCNLRRCELSCRSLGLLGKCIGEACKCVPY-OH; disulfide 3-21, 8-26, 12-28), for which the inhibition in assay [1] is 40%; in assay [2], less than 39%.

In the case of `CC[C@H](C)[C@@H]1NC(=O)[C@@H]2CSSC[C@H](NC(=O)[C@H](Cc3ccccc3)NC(=O)[C@H](C)N)C(=O)N[C@@H](CC(N)=O)C(=O)N[C@@H](CC(C)C)C(=O)N[C@@H](CCCNC(=N)N)C(=O)N[C@@H](CCCNC(=N)N)C(=O)N[C@H]3CSSC[C@H](NC(=O)[C@H](CCCCN)NC(=O)[C@H](CCC(=O)O)NC(=O)CNC1=O)C(=O)N[C@@H](CCCCN)C(=O)N[C@H](C(=O)N[C@H](C(=O)N1CCC[C@H]1C(=O)N[C@@H](Cc1ccc(O)cc1)C(=O)O)C(C)C)CSSC[C@H](NC(=O)[C@H](CO)NC(=O)[C@H](CC(C)C)NC(=O)[C@H](CCC(=O)O)NC3=O)C(=O)N[C@@H](CCCNC(=N)N)C(=O)N[C@@H](CO)C(=O)N[C@@H](CC(C)C)C(=O)NCC(=O)N[C@@H](CC(C)C)C(=O)N[C@@H](CC(C)C)C(=O)NCC(=O)N[C@@H](CCCCN)C(=O)N2` (H-AFCNLRRCELSCRSLGLLGKCIGEKCKCVPY-OH; disulfide 3-21, 8-26, 12-28), the inhibition is 40% in assay [1] and less than 39% in assay [2].

As for `CC[C@H](C)[C@@H]1NC(=O)[C@@H]2CSSC[C@H](NC(=O)[C@H](Cc3ccccc3)NC(=O)[C@H](C)N)C(=O)N[C@@H](CC(N)=O)C(=O)N[C@@H](CC(C)C)C(=O)N[C@@H](CCCNC(=N)N)C(=O)N[C@@H](CCCNC(=N)N)C(=O)N[C@H]3CSSC[C@H](NC(=O)[C@H](CCC(=O)O)NC(=O)[C@H](CCC(=O)O)NC(=O)CNC1=O)C(=O)N[C@@H](CCCCN)C(=O)N[C@H](C(=O)N[C@H](C(=O)N1CCC[C@H]1C(=O)N[C@@H](Cc1c[nH]cn1)C(=O)O)C(C)C)CSSC[C@H](NC(=O)[C@H](CO)NC(=O)[C@H](CC(C)C)NC(=O)[C@H](CCC(=O)O)NC3=O)C(=O)N[C@@H](CCCNC(=N)N)C(=O)N[C@@H](CO)C(=O)N[C@@H](CC(C)C)C(=O)NCC(=O)N[C@@H](CC(C)C)C(=O)N[C@@H](CC(C)C)C(=O)NCC(=O)N[C@@H](CCCCN)C(=O)N2` (H-AFCNLRRCELSCRSLGLLGKCIGEECKCVPH-OH; disulfide 3-21, 8-26, 12-28), the inhibition in assay [1] was less than 39%; in assay [2], 40%.

As a reminder, the inhibition is the change of the read-out against control, counted positive when it falls.
